Results from PubChem BioAssay AID1845194 (Molecular Pharmacology Branch, DTP, NCI, 2023).

Test system: 287954-098-R-J1 tumor spheroid viability
Assay: Anticancer human tumor 287954-098-R-J1 patient-derived Ewing sarcoma cell line growth inhibition
Details: spheroids with HUVEC and MSC; for IC50: curve of first compound; for viability, T/C: stronger effect = lower value
Source text: Multicellular complex tumor spheroid response to DNA repair inhibitors in combination with DNA-damaging drugs
This study explores the anticancer activities of DNA-damaging drugs and inhibitors of DNA damage repair, both as single agents and in combinations. Complex tumor spheroids comprised of malignant cells, endothelial cells and mesenchymal stem cells served as an in vitro model for human solid tumors. This model system incorporates physiologically relevant features and patient-derived or established malignant cell lines with clinically relevant genetic alterations from many tumor types. Twenty-six patient-derived or established malignant cell lines were evaluated representing sarcoma, melanoma, small cell lung cancer (SCLC), non-small cell lung cancer (NSCLC), as well as bladder, ovarian and pancreatic cancers. The concentration ranges selected for each drug and investigational agent were based upon clinically achievable concentrations if the clinical Cmax of the agent was known.
Compounds. The drugs and compounds olaparib (NSC753686), talazoparib (NSC767125), berzosertib (NSC777718), elimusertib (NSC800525), nedisertib (NSC802822), VX-984 (NSC792969), AZD-1390 (NSC803789), temozolomide (NSC362856), topotecan (NSC609699), trabectedin (NSC813783), staurosporine (NSC755774), and gemcitabine (NSC613327) were obtained from the National Cancer Institute (NCI) Developmental Therapeutics Program Chemical Repository. The FDA-approved anticancer drug set is available from the Developmental Therapeutics Program at https://dtp.cancer.gov/organization/dscb/obtaining/available_plates.htm. […] The stock solutions were prepared in dimethyl sulfoxide (DMSO, Sigma-Aldrich, St. Louis, MO, cat. D2650) at 400-fold the tested concentration and stored at -70 degrees C. Prior to their use, the stock solutions were diluted in fresh medium and the final DMSO concentration in the assay was 0.25% (v/v). All drugs and investigational agents were tested over a range starting from a high concentration at or near the clinical Cmax and decreasing in half-log increments. If the clinical Cmax for an agent had not been determined, the highest concentration tested was 10 microM.
Cell Lines. The patient-derived cancer cell (PDC) lines: 156681-154-R-J1-PDC, 283228-195-R-J1-PDC, 287954-098-R-J1-PDC, 292921-168-R-J2-PDC, 349418-098-R-PDC, 425362-245-T-J1-PDC, 556581-035-R-J1-PDC, and BL0293-F563-PDC were received from the NCI Patient-Derived Models Repository (PDMR, https://pdmr.cancer.gov). The established cell lines HS-SY-2 (RRID:CVCL_8719), MPNST, and SYO-1 (RRID:CVCL_7146) were obtained from the Sloan Kettering Institute. The alveolar soft parts sarcoma cell line ASPS-1 (RRID:CVCL_S738) was established at the NCI and grown from internal seed stocks. The following established cell lines were purchased from the American Type Culture Collection (ATCC, Manassas, VA): G-401 (ATCC, cat. CRL-1441, RRID:CVCL_0270), SW982 (ATCC, cat. HTB-93, RRID:CVCL_1734), VA-ES-BJ (ATCC, cat. CRL-2138, RRID:CVCL_1785), NCI-H719 (ATCC, cat. CRL-5837, RRID:CVCL_1582), NCI-H196 (ATCC, cat. CRL-5823, RRID:CVCL_1509), NCI-H841 (ATCC, cat. CRL-5845, RRID:CVCL_1595), NCI-H1618 (ATCC, cat. CRL-5879, RRID:CVCL_1480), NCI-H1876 (ATCC, cat. CRL-5902, RRID:CVCL_1503), DMS 114 (ATCC, cat. CRL-2066; RRID:CVCL_1174), NCI-H211 (ATCC, cat. CRL-5824; RRID:CVCL_1529), and SW 1271 (ATCC, cat. CRL-2177, RRID:CVCL_1716). The small cell lung cancer cell line COR-L88 was purchased from Sigma-Aldrich (cat. 92031917-1VL, RRID:CVCL_1141). The non-small cell lung cancer cell lines NCI-H226 (RRID:CVCL_1544) and NCI-H322M (RRID:CVCL_1557) were established at the NCI and grown from internal seed stocks. Pooled donor human umbilical vein endothelial cells (HUVEC, Lonza, cat. CC-2519) and human mesenchymal stem cells (hMSC, Lonza, cat. PT-2501) were purchased from Lonza (Walkersville, MD).
Cell Culture. All cells were maintained in an incubator at 37 degrees C and 5% CO2 with 95% humidity. […]

[1] = second compound 0.003 µM, first compound 0.0316 µM
[2] = second compound 0.003 µM, first compound 0.1 µM
[3] = second compound 0.003 µM, first compound 0.316 µM
[4] = second compound 0.003 µM, first compound 1 µM
[5] = second compound 0.003 µM, first compound 3.16 µM
[6] = second compound 0.003 µM, first compound 10 µM
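Also: spheroids exposed to compound for 7 days before viability readout.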
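For viability, T/C in this document: luminescent signal taken as surrogate of viable cell content; 100% = DMSO vehicle control viability and lower means growth inhibition.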

## Cc1cc(C)c(CNC(=O)c2cc(-c3ccc(CN4CCOCC4)cc3)cc3c2cnn3C2CCCC2)c(=O)[nH]1 + CC[C@@]1(O)C(=O)OCc2c1cc1n(c2=O)Cc2cc3c(CN(C)C)c(O)ccc3nc2-1
Second compound 0.003 µM
  IC50: > 10000 nM
Second compound 0.00949 µM
  IC50: > 10000 nM
Second compound 0.03 µM
  IC50: < 31.6 nM
Second compound 0.0949 µM
  IC50: < 31.6 nM
Second compound 0.3 µM
  IC50: < 31.6 nM
[1]
  viability, T/C: 104%
[2]
  viability, T/C: 106%
[3]
  viability, T/C: 98.6%
[4]
  viability, T/C: 96.5%
[5]
  viability, T/C: 102%
[6]
  viability, T/C: 119%
Second compound 0.00949 µM, first compound 0.0316 µM
  viability, T/C: 100%
Second compound 0.00949 µM, first compound 0.1 µM
  viability, T/C: 114%
Second compound 0.00949 µM, first compound 0.316 µM
  viability, T/C: 102%
Second compound 0.00949 µM, first compound 1 µM
  viability, T/C: 108%
Second compound 0.00949 µM, first compound 3.16 µM
  viability, T/C: 104%
Second compound 0.00949 µM, first compound 10 µM
  viability, T/C: 104%
Second compound 0.03 µM, first compound 0.0316 µM
  viability, T/C: 12.5%
Second compound 0.03 µM, first compound 0.1 µM
  viability, T/C: 42.9%
Second compound 0.03 µM, first compound 0.316 µM
  viability, T/C: 21.1%
Second compound 0.03 µM, first compound 1 µM
  viability, T/C: 36.1%
Second compound 0.03 µM, first compound 3.16 µM
  viability, T/C: 28.2%
Second compound 0.03 µM, first compound 10 µM
  viability, T/C: 18.9%
Second compound 0.0949 µM, first compound 0.0316 µM
  viability, T/C: 2.57%
Second compound 0.0949 µM, first compound 0.1 µM
  viability, T/C: 2.37%
Second compound 0.0949 µM, first compound 0.316 µM
  viability, T/C: 2.24%
Second compound 0.0949 µM, first compound 1 µM
  viability, T/C: 2.24%
Second compound 0.0949 µM, first compound 3.16 µM
  viability, T/C: 2.58%
Second compound 0.0949 µM, first compound 10 µM
  viability, T/C: 2.04%
Second compound 0.3 µM, first compound 0.0316 µM
  viability, T/C: 2.22%
Second compound 0.3 µM, first compound 0.1 µM
  viability, T/C: 2.08%
Second compound 0.3 µM, first compound 0.316 µM
  viability, T/C: 2.15%
Second compound 0.3 µM, first compound 1 µM
  viability, T/C: 2.38%
Second compound 0.3 µM, first compound 3.16 µM
  viability, T/C: 2.39%
Second compound 0.3 µM, first compound 10 µM
  viability, T/C: 1.61%

## CC1COCCN1c1cc(-c2ccnn2C)c2ccnc(-c3ccn[nH]3)c2n1 (stereo not given) + COc1cc2c(cc1O)CCNC21CSC2c3c(OC(C)=O)c(C)c4c(c3C(COC1=O)N1C(O)C3Cc5cc(C)c(OC)c(O)c5C(C21)N3C)OCO4
Second compound 30 pM
  IC50: 74.6 nM
Second compound 94.9 pM
  IC50: 48.3 nM
Second compound 0.0003 µM
  IC50: < 31.6 nM
Second compound 0.000949 µM
  IC50: < 31.6 nM
Second compound 0.003 µM
  IC50: < 31.6 nM
Second compound 30 pM, first compound 0.0316 µM
  viability, T/C: 111%
Second compound 30 pM, first compound 0.1 µM
  viability, T/C: 28.8%
Second compound 30 pM, first compound 0.316 µM
  viability, T/C: 7.3%
Second compound 30 pM, first compound 1 µM
  viability, T/C: 4.7%
Second compound 30 pM, first compound 3.16 µM
  viability, T/C: 1.8%
Second compound 30 pM, first compound 10 µM
  viability, T/C: 2.96%
Second compound 94.9 pM, first compound 0.0316 µM
  viability, T/C: 73.7%
Second compound 94.9 pM, first compound 0.1 µM
  viability, T/C: 9.38%
Second compound 94.9 pM, first compound 0.316 µM
  viability, T/C: 3.08%
Second compound 94.9 pM, first compound 1 µM
  viability, T/C: 1.84%
Second compound 94.9 pM, first compound 3.16 µM
  viability, T/C: 1.08%
Second compound 94.9 pM, first compound 10 µM
  viability, T/C: 2.57%
Second compound 0.0003 µM, first compound 0.0316 µM
  viability, T/C: 2.38%
Second compound 0.0003 µM, first compound 0.1 µM
  viability, T/C: 1.69%
Second compound 0.0003 µM, first compound 0.316 µM
  viability, T/C: 1.1%
Second compound 0.0003 µM, first compound 1 µM
  viability, T/C: 0.7%
Second compound 0.0003 µM, first compound 3.16 µM
  viability, T/C: 0.69%
Second compound 0.0003 µM, first compound 10 µM
  viability, T/C: 0.94%
Second compound 0.000949 µM, first compound 0.0316 µM
  viability, T/C: 0.28%
Second compound 0.000949 µM, first compound 0.1 µM
  viability, T/C: 0.34%
Second compound 0.000949 µM, first compound 0.316 µM
  viability, T/C: 0.31%
Second compound 0.000949 µM, first compound 1 µM
  viability, T/C: 0.09%
Second compound 0.000949 µM, first compound 3.16 µM
  viability, T/C: 0.03%
Second compound 0.000949 µM, first compound 10 µM
  viability, T/C: 0.13%
[1]
  viability, T/C: 0.19%
[2]
  viability, T/C: 0.19%
[3]
  viability, T/C: 0.14%
[4]
  viability, T/C: 0.12%
[5]
  viability, T/C: 0.11%
[6]
  viability, T/C: 0.22%
